Experimental data published in publication PMC3495596 (Journal of medicinal chemistry, 2012).

Key:
thermolysin [1] = target: T1, thermolysin (Bacillus thermoproteolyticus, UniProt P00800); format: biochemical; conditions: free energy of binding corresponding to Ki
thermolysin [2] = target: T1, thermolysin; format: binding

T1 sequence (P00800 233-548): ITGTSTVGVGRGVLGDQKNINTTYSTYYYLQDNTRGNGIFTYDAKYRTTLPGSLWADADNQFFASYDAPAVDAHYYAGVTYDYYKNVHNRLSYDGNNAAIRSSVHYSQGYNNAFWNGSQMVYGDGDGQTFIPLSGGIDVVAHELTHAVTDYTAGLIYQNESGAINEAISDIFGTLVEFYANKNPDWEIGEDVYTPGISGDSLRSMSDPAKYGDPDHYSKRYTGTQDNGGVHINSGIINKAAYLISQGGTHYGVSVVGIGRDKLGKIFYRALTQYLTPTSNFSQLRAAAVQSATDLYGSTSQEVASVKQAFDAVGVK

Row | SMILES | ΔGKi (thermolysin [1]) | ΔΔH (thermolysin [2])
1 | CNC(=O)[C@H](CC(C)C)NP(=O)([O-])CNC(=O)OCc1ccccc1.[Li+] [Compound 8c, N-(N-(benzyloxycarbonyl)-aminomethylphosphonyl)-N′-methyl-L-leucinamide lithium] | -8.25 kcal/mol | –
2 | CC(C)C[C@H](NP(=O)([O-])CNC(=O)OCc1ccccc1)C(=O)NCC(=O)[O-].[Li+].[Li+] [Compound 8a, N-(N-(N-(benzyloxycarbonyl)-aminomethylphosphonyl)-L-leucinyl)-glycinate di-lithium] | -8.63 kcal/mol | –
3 | CCNC(=O)[C@H](CC(C)C)NP(=O)([O-])CNC(=O)OCc1ccccc1.[Li+] [Compound 8d, N-(N-(benzyloxycarbonyl)-aminomethylphosphonyl)-N′-ethyl-L-leucinamide lithium] | -8.91 kcal/mol | –
4 | CC(C)C[C@H](NP(=O)([O-])CNC(=O)OCc1ccccc1)C(=O)N[C@@H](C)C(=O)[O-].[Li+].[Li+] [Compound 8b, N-(N-(N-(benzyloxycarbonyl)-aminomethylphosphonyl)-L-leucinyl)-alaninate di-Lithium] | -10.5 kcal/mol | -3.18 kcal/mol
